Drawing on BindingDB's records for doi:10.3109/10799899109064686 (Center For Bio-Pharmaceutical Sciences, 1991), this text covers Ki for three compounds.

The Ki is the equilibrium dissociation constant of an inhibitor or competing ligand from its target.

Some targets named below: Adenosine receptor A2a (Rattus norvegicus, UniProt P30543); Histamine H1 receptor (Rattus norvegicus, UniProt P31390); Mu-type opioid receptor (Rattus norvegicus, UniProt P33535).
The target in assay [1] is Beta-1 adrenergic receptor (Rattus norvegicus, UniProt P18090).
Assay [2] addresses Kappa-type opioid receptor (Rattus norvegicus, UniProt P34975).
Assay [3] deals with T1, Alpha-2C adrenergic receptor (Rattus norvegicus, UniProt P22086).
T1 sequence (P22086 whole entry): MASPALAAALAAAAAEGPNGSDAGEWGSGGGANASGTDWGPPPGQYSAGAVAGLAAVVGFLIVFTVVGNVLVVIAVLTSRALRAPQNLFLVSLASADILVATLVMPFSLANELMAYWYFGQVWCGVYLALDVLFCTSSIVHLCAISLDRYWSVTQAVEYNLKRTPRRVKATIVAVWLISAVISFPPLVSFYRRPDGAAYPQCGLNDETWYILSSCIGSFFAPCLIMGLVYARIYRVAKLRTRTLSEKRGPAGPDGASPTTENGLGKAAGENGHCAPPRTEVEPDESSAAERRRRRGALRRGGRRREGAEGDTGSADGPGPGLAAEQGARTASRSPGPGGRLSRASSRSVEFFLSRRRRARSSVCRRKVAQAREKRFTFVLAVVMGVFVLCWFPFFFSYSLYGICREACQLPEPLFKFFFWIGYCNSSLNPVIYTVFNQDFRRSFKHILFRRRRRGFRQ

Assay [4] addresses 5-hydroxytryptamine 1D receptor (Bos taurus, UniProt Q8MI13).
The target in assay [5] is Delta-type opioid receptor (Rattus norvegicus, UniProt P33533).
For assay [6], the target named is 5-hydroxytryptamine receptor 2A (Rattus norvegicus, UniProt P14842).
For assay [7], the target named is T2, Muscarinic acetylcholine receptor M1 (Rattus norvegicus, UniProt P08482).
T2 sequence (P08482 whole entry): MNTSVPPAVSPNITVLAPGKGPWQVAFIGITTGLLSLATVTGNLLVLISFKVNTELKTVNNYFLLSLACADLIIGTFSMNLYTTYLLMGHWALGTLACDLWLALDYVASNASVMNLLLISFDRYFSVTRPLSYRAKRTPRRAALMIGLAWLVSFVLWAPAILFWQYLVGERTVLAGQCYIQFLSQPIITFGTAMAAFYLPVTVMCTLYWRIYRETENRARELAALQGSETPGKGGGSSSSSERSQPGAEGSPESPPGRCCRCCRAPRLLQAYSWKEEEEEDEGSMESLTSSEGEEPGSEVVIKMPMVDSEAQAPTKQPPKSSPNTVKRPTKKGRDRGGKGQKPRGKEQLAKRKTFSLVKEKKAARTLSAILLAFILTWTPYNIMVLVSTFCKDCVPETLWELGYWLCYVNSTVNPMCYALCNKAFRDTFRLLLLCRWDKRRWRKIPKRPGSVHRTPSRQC

For assay [8], the target named is T3, 5-hydroxytryptamine receptor 3A (Mus musculus, UniProt P23979).
T3 sequence (P23979 whole entry): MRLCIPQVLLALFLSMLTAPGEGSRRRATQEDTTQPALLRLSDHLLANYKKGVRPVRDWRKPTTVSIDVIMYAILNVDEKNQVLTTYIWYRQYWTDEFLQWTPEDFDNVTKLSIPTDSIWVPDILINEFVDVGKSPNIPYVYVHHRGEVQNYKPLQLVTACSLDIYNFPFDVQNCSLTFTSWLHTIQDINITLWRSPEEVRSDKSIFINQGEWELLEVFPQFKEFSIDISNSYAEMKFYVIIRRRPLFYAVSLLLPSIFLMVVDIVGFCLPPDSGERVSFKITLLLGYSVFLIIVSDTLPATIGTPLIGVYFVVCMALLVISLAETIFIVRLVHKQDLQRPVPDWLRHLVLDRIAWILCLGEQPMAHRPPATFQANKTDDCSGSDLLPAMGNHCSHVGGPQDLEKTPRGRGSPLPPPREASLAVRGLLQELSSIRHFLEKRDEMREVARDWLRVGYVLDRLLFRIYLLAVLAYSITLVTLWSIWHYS

Assay [9] addresses Gamma-aminobutyric acid receptor subunit alpha-1 (Rattus norvegicus, UniProt P62813).
For assay [10], the target named is T4, Muscarinic acetylcholine receptor M2 (Rattus norvegicus, UniProt P10980).
T4 sequence (P10980 whole entry): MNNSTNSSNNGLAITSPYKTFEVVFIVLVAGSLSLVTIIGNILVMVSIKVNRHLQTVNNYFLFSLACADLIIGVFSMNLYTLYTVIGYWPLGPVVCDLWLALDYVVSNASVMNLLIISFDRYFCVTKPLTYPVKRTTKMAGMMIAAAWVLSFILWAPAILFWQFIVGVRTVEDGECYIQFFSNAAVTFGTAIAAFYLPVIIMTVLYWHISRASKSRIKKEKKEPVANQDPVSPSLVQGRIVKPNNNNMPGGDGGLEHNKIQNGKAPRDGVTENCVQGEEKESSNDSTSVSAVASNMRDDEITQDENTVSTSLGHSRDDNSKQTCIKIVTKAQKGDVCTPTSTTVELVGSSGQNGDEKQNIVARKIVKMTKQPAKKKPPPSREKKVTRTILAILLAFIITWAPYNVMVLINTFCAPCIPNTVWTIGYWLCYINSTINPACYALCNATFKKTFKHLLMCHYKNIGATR

Molecules are shown by their SMILES.

Beta-1 adrenergic receptor, sequence (P18090 whole entry): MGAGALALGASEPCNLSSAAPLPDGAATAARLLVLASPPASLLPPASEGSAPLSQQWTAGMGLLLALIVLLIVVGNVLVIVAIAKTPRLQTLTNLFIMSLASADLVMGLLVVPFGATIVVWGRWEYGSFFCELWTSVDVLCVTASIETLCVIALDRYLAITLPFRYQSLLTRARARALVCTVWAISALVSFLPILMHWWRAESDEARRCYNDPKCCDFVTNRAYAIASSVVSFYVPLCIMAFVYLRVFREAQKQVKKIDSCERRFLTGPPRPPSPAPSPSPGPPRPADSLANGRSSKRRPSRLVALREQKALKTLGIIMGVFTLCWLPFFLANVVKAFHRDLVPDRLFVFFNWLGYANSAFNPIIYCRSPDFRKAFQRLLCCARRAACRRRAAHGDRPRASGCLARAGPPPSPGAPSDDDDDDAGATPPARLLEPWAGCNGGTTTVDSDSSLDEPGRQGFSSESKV
5-hydroxytryptamine 1D receptor, sequence (Q8MI13 whole entry): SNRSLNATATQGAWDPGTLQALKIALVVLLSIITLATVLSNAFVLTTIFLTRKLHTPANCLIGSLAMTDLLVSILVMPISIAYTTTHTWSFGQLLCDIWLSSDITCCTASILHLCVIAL
Delta-type opioid receptor, sequence (P33533 whole entry): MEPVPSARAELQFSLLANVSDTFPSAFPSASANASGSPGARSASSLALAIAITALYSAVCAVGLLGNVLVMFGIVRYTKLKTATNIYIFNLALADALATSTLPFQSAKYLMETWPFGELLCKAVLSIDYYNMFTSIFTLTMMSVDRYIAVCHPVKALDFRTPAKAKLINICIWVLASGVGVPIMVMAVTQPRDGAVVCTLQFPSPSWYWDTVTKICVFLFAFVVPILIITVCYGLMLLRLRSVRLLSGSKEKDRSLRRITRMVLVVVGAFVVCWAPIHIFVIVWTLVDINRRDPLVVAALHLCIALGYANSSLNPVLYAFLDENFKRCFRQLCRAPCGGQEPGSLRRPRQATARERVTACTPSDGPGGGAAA
Adenosine receptor A2a, sequence (P30543 whole entry): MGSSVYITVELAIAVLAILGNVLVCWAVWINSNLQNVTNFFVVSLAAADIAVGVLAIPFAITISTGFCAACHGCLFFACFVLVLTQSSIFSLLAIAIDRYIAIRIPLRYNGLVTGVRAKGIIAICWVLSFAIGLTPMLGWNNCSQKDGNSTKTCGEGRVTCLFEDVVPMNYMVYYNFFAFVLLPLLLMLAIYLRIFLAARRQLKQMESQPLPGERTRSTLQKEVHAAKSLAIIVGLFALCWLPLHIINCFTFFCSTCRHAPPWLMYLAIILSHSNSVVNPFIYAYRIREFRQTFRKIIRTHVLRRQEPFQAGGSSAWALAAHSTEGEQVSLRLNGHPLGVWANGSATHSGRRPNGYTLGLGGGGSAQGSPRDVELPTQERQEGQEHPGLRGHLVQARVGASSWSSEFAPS
Gamma-aminobutyric acid receptor subunit alpha-1, sequence (P62813 whole entry): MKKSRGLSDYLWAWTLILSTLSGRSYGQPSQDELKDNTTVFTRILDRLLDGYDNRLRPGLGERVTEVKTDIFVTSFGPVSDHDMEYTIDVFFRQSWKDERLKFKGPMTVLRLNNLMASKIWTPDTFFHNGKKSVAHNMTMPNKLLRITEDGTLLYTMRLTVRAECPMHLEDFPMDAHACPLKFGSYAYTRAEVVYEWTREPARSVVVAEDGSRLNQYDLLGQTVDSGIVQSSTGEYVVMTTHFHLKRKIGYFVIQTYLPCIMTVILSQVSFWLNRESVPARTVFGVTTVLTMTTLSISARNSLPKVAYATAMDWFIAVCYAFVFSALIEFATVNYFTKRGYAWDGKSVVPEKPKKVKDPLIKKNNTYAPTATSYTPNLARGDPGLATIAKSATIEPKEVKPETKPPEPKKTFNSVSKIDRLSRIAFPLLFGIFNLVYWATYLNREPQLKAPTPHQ
Mu-type opioid receptor, sequence (P33535 whole entry): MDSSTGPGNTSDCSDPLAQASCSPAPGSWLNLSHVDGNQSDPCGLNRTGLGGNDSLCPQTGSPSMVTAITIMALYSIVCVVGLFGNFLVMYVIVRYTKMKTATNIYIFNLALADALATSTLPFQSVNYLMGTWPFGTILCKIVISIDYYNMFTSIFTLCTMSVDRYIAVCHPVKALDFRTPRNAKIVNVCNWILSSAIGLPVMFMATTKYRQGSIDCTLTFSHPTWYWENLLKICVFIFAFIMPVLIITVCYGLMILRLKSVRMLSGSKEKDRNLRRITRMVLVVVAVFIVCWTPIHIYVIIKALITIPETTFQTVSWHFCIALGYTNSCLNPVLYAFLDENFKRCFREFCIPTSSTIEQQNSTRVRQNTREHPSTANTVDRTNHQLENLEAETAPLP
Histamine H1 receptor, sequence (P31390 whole entry): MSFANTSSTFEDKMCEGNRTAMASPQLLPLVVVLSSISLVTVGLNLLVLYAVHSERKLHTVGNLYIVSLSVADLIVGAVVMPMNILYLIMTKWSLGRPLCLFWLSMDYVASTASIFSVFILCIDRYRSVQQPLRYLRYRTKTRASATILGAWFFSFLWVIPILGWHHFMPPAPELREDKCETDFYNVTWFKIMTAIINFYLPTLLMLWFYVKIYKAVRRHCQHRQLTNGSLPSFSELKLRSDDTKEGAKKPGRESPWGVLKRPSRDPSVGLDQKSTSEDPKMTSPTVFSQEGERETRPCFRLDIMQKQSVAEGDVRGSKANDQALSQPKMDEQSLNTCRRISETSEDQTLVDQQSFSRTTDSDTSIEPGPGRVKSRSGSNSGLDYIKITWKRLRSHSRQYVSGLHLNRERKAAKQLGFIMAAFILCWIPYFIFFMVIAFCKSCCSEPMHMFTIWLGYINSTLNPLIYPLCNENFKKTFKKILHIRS
Kappa-type opioid receptor, sequence (P34975 whole entry): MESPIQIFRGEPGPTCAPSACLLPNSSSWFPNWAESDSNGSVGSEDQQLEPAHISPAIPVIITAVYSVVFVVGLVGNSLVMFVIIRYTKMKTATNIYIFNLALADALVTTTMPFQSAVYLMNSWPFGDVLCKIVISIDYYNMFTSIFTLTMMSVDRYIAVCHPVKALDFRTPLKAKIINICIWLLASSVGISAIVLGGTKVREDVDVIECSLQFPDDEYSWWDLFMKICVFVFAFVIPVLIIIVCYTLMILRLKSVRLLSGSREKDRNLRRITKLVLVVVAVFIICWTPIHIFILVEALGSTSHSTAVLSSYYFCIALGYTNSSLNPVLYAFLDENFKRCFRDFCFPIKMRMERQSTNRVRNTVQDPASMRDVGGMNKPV
5-hydroxytryptamine receptor 2A, sequence (P14842 whole entry): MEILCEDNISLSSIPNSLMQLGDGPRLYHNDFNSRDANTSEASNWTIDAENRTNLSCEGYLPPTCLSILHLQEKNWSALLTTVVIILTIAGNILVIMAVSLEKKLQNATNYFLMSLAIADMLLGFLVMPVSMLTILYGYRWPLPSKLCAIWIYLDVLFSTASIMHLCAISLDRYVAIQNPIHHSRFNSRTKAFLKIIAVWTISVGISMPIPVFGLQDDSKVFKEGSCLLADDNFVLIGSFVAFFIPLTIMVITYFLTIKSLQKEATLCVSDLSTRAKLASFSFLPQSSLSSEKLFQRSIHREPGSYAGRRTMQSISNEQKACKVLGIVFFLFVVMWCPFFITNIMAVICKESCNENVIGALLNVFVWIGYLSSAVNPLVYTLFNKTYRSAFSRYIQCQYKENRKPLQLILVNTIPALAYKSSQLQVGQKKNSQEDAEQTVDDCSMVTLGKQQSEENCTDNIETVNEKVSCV

Regarding `N=C(N)NC(=O)c1nc(Cl)c(N2CCCCCC2)nc1N`, the Ki was greater than 10 µM in assay [1]; 3.9 µM in assay [2]; 5.2 µM in [3]; greater than 10 µM in assay [4]; 1 µM in assay [5]; 0.4 µM in assay [6]. Also, the Ki was 3.6 µM in [7]; 4.6 µM on Adenosine receptor A2a; greater than 10 µM in [8]; 5.6 µM at Histamine H1 receptor; greater than 10 µM in assay [9]; 2.9 µM in assay [10]. Moreover, the Ki on Mu-type opioid receptor was determined as 0.061 µM.

As to `N=C(N)NC(=O)c1nc(Cl)c(N)nc1N` [3,5-diamino-N-carbamimidoyl-6-chloropyrazine-2-carboxamide], the Ki in assay [1], in [2], in [3], in assay [4], in [5] and in assay [6] was greater than 10 µM throughout. Also, the Ki was greater than 10 µM in [7]; 17 µM at Adenosine receptor A2a; greater than 10 µM in [8]; greater than 10 µM at Histamine H1 receptor; greater than 10 µM in [9]; greater than 10 µM in [10]. Further, the Ki at Mu-type opioid receptor was greater than 10 µM.

Consider `NC(=NCc1ccccc1)NC(=O)c1nc(Cl)c(N)nc1N` [NSC_108107], for which the Ki in [1] was greater than 10 µM; in assay [2], greater than 10 µM; in assay [3], 2.2 µM; in assay [4], greater than 10 µM; in assay [5], greater than 10 µM; in assay [6] it was 1.4 µM. Further, the Ki in assay [7] was 2.9 µM; at Adenosine receptor A2a, 6.4 µM; in [8], 2.2 µM; on Histamine H1 receptor it was 3.2 µM; in assay [9] it was greater than 10 µM; in assay [10], 5.8 µM. The same compound displayed a Ki at Mu-type opioid receptor of 1.1 µM.
